US20250206732A1, “COMPOUNDS AND METHODS FOR THE TARGETED DEGRADATION OF KRAS” (Arvinas Operations, Inc., priority 2022, published 2025)
Each block holds one molecule with its values, some of them ahead of it.

Target: T1, AsPC-1 HiBiT-KRASG12D (Homo sapiens, UniProt P01116, G12D)
T1 construct: insert the HiBiT tag onto the N-terminus of one or more of the endogenous KRAS alleles; endogenous in cells; host or cells: AsPC-1 (ATCC CRL-1682), CRISPR-Cas9 knock-in clone, one tagged allele
Experiment: HiBiT degradation assay (G12D), AsPC-1 HiBiT-KRASG12D cells
Format: cell-based
Details: 24 hours treatment; for Dmax: ASPC1, AsPC-1 HiBiT-KRASG12D cells, maximum degradation observed; for DC50: AsPC-1 HiBiT-KRASG12D cells, HiBiT luminescence
In short: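 Steps: treat HiBiT-KRASG12D AsPC-1 cells with compound for 24 hours; add alamar blue to 1× and incubate 4 hours to assess viability; wash with PBS; add HiBiT lytic detection reagent, incubate 45 minutes at room temperature; read luminescence. Viability fluorescence is normalized to DMSO wells.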

T1 sequence (P01116 1-188 isoform P01116-2 G12D): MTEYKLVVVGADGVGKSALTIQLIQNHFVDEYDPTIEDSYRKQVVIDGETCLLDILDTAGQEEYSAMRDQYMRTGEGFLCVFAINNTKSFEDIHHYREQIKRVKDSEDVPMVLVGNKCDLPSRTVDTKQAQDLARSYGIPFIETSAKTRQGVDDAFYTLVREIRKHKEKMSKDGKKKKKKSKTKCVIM

Structure (SMILES): CCc1cccc2cc(O)cc(-c3ncc4c(N5C[C@H]6CC[C@@H](C5)N6)nc(OCCN5CCC(C)(CN6CCN(c7cc([C@@H](C(=O)N8C[C@H](O)C[C@H]8C(=O)N[C@@H](C)c8ccc(-c9scnc9C)cc8)C(C)C)on7)CC6)CC5)nc4c3F)c12 [Compound 188, (2S,4R)-1-((S)-2-(3-(4-((1-(2-((4-((1R,5S)-3,8-diazabicyclo[3.2.1]octan-3-yl)-7-(8-ethyl-3-hydroxynaphthalen-1-yl)-8-fluoropyrido[4,3-d]pyrimidin-2-yl)oxy)ethyl)-4-methylpiperidin-4-yl)methyl)piperazin-1-yl)isoxazol-5-yl)-3-methylbutanoyl)-4-hydroxy-N—((S)-1-(4-(4-methylthiazol-5-yl)phenyl)ethyl)pyrrolidine-2-carboxamide]
Dmax: 20 to 60%
DC50: 1000 to 3000 nM

DC50: > 3000 nM
Structure (SMILES): CCc1cccc2cc(O)cc(-c3ncc4c(N5CC6CCC(C5)N6)nc(OC[C@H]5CN(CC6CN(c7cc([C@@H](C(=O)N8C[C@H](O)C[C@H]8C(=O)N[C@@H](C)c8ccc(-c9scnc9C)cc8)C(C)C)on7)C6)CCN5C)nc4c3F)c12 [Compound 181, (2S,4R)-1-[(2S)-2-[3-(3-{[(3R)-3-{[(4-{3,8-diazabicyclo[3.2.1]octan-3-yl}-7-(8-ethyl-3-hydroxynaphthalen-1-yl)-8-fluoropyrido[4,3-d]pyrimidin-2-yl)oxy]methyl}-4-methylpiperazin-1-yl]methyl}azetidin-1-yl)-1,2-oxazol-5-yl]-3-methylbutanoyl]-4-hydroxy-N-[(1S)-1-[4-(4-methyl-1,3-thiazol-5-yl)phenyl]ethyl]pyrrolidine-2-carboxamide]

Structure (SMILES): C#Cc1c(F)ccc2cc(O)cc(-c3ncc4c(N5CC6CCC(C5)N6)nc(OCCN5CCC(CN6CCN(c7cnc(C(=O)N[C@H](C(=O)N8C[C@H](O)C[C@H]8C(=O)N[C@@H](C)c8ccc(-c9scnc9C)cc8)C(C)(C)C)cn7)CC6)CC5)nc4c3F)c12 [Compound 179, 5-{4-[(1-{2-[(4-{3,8-diazabicyclo[3.2.1]octan-3-yl}-7-(8-ethynyl-7-fluoro-3-hydroxynaphthalen-1-yl)-8-fluoropyrido[4,3-d]pyrimidin-2-yl)oxy]ethyl}piperidin-4-yl)methyl]piperazin-1-yl}-N-[(2S)-1-[(2S,4R)-4-hydroxy-2-{[(1S)-1-[4-(4-methyl-1,3-thiazol-5-yl)phenyl]ethyl]carbamoyl}pyrrolidin-1-yl]-3,3-dimethyl-1-oxobutan-2-yl]pyrazine-2-carboxamide]
Dmax: 80 to 100%
DC50: < 600 nM

Structure (SMILES): C#Cc1c(F)ccc2cc(O)cc(-c3ncc4c(N5CC6CCC(C5)N6)nc(OCCN5CCC(CC6CN(c7cc([C@H](C(=O)N8C[C@H](O)C[C@H]8C(=O)N[C@@H](C)c8ccc(-c9scnc9C)cc8)C(C)C)on7)C6)CC5)nc4c3F)c12 (single isomer, unassigned) [Compound 288]
Dmax: 80 to 100%
DC50: < 600 nM

Structure (SMILES): CCc1cccc2cc(O)cc(-c3ncc4c(N5CC6CCC(C5)N6)nc(OCCN5CCC6(CC5)CN(c5cc([C@@H](C(=O)N7C[C@H](O)C[C@H]7C(=O)N[C@@H](C)c7ccc(-c8ccnn8C)cc7)C(C)C)on5)C6)nc4c3F)c12 (relative stereo) [Compound 141, (2S,4R)-1-[(2R*)-2-[3-(7-{2-[(4-{3,8-diazabicyclo[3.2.1]octan-3-yl}-7-(8-ethyl-3-hydroxynaphthalen-1-yl)-8-fluoropyrido[4,3-d]pyrimidin-2-yl)oxy]ethyl}-2,7-diazaspiro[3.5]nonan-2-yl)-1,2-oxazol-5-yl]-3-methylbutanoyl]-4-hydroxy-N-[(1S)-1-[4-(1-methyl-1H-pyrazol-5-yl)phenyl]ethyl]pyrrolidine-2-carboxamide]
Dmax: 20 to 60%
DC50: 1000 to 3000 nM

Structure (SMILES): CCc1cccc2cc(O)cc(-c3ncc4c(N5CC6CCC(C5)N6)nc(OCCN5CCC(CCOc6cc([C@H](C(=O)N7C[C@H](O)C[C@H]7C(=O)N[C@@H](C)c7ccc(-c8scnc8C)cc7)C(C)C)on6)CC5)nc4c3F)c12 [Compound 249]
Dmax: 80 to 100%
DC50: < 600 nM

Structure (SMILES): CCc1cccc2cc(O)cc(-c3ncc4c(N5CC6CCC(C5)N6)nc(OC[C@]56CCCN5[C@H](COC(=O)N5CCN(c7cc([C@H](C(=O)N8C[C@H](O)C[C@H]8C(=O)N[C@@H](C)c8ccc(-c9scnc9C)cc8)C(C)C)on7)[C@H](C)C5)CC6)nc4c3F)c12 [Compound 130, [(3S,7aR)-7a-{[(4-{3,8-diazabicyclo[3.2.1]octan-3-yl}-7-(8-ethyl-3-hydroxynaphthalen-1-yl)-8-fluoropyrido[4,3-d]pyrimidin-2-yl)oxy]methyl}-hexahydro-1H-pyrrolizin-3-yl]methyl (3R)-4-{5-[(2R)-1-[(2S,4R)-4-hydroxy-2-{[(1S)-1-[4-(4-methyl-1,3-thiazol-5-yl)phenyl]ethyl]carbamoyl}pyrrolidin-1-yl]-3-methyl-1-oxobutan-2-yl]-1,2-oxazol-3-yl}-3-methylpiperazine-1-carboxylate]
Dmax: 80 to 100%
DC50: < 600 nM

Structure (SMILES): CCc1cccc2cc(O)cc(-c3ncc4c(N5CC6CCC(C5)N6)nc(OCCC5CCN(CC6CN(c7cc([C@H](C(=O)N8C[C@H](O)C[C@H]8C(=O)N[C@@H](C)c8ccc(-c9scnc9C)cc8)C(C)C)on7)C6)CC5)nc4c3F)c12 [Compound 218, (2S,4R)-1-[(2R)-2-(3-{3-[(4-{2-[(4-{3,8-diazabicyclo[3.2.1]octan-3-yl}-7-(8-ethyl-3-hydroxynaphthalen-1-yl)-8-fluoropyrido[4,3-d]pyrimidin-2-yl)oxy]ethyl}piperidin-1-yl)methyl]azetidin-1-yl}-1,2-oxazol-5-yl)-3-methylbutanoyl]-4-hydroxy-N-[(1S)-1-[4-(4-methyl-1,3-thiazol-5-yl)phenyl]ethyl]pyrrolidine-2-carboxamide]
Dmax: 80 to 100%
DC50: < 600 nM

Structure (SMILES): Cc1ncsc1-c1ccc([C@H](C)NC(=O)[C@@H]2C[C@@H](O)CN2C(=O)[C@H](c2cc(OC[C@@H]3CC[C@]4(COc5nc(N6CC7CCC(C6)N7)c6cnc(-c7cc(O)cc(Cl)c7C7CC7)c(F)c6n5)CCCN34)no2)C(C)C)cc1 [Compound 65, (2S,4R)-1-[(2S)-2-(3-{[(3S,7aS)-7a-({[7-(3-chloro-2-cyclopropyl-5-hydroxyphenyl)-4-{3,8-diazabicyclo[3.2.1]octan-3-yl}-8-fluoropyrido[4,3-d]pyrimidin-2-yl]oxy}methyl)-hexahydro-1H-pyrrolizin-3-yl]methoxy}-1,2-oxazol-5-yl)-3-methylbutanoyl]-4-hydroxy-N-[(1S)-1-[4-(4-methyl-1,3-thiazol-5-yl)phenyl]ethyl]pyrrolidine-2-carboxamide]
Dmax: < 20%
DC50: 1000 to 3000 nM

Structure (SMILES): Cc1ncsc1-c1ccc([C@H](C)NC(=O)[C@@H]2C[C@@H](O)CN2C(=O)[C@@H](c2cc(OCC3CCN(CCOc4nc(N5CC6CCC(C5)N6)c5cnc(-c6cc(O)cc(Cl)c6C(F)(F)F)c(F)c5n4)CC3)no2)C(C)C)cc1 [Compound 24, (2S,4R)-1-[(2R)-2-[3-({1-[2-({7-[3-chloro-5-hydroxy-2-(trifluoromethyl)phenyl]-4-{3,8-diazabicyclo[3.2.1]octan-3-yl}-8-fluoropyrido[4,3-d]pyrimidin-2-yl}oxy)ethyl]piperidin-4-yl}methoxy)-1,2-oxazol-5-yl]-3-methylbutanoyl]-4-hydroxy-N-[(1S)-1-[4-(4-methyl-1,3-thiazol-5-yl)phenyl]ethyl]pyrrolidine-2-carboxamide]
Dmax: 80 to 100%
DC50: < 600 nM
